From patent publication US20170042809A1, “STABLE LIPOSOMAL FORMULATIONS OF CARBONIC ANHYDRASE INHIBITORS FOR OCULAR DRUG DELIVERY” (Peregrine Ophthalmic PTE LTD., priority 2015, published 2017) come the findings set out here.

Data set [1] can be described thus: Stability of LipoDH and dorzolamide HCl aqueous solution on storage at 5° C. In kind it is physicochemical. Here is the method: The LipoDH formulation was described above in EXAMPLE 2. A dorzolamide HCl aqueous solution was prepared by dissolving 200 mg dorzolamide HCl in 20 mL of PBS. The dorzolamide content of both formulations was analyzed after storing them at 5° C. for 7 and 14 days. The temperature was monitored and recorded continuously to ensure stable temperature conditions.

Data set [2] is described as follows: In-vitro drug release by dialysis against PBS pH 7.4, HPLC. The settings on record: within 48 hours, dialysis (MWCO 8-10 kDal) against PBS pH 7.4. It counts as physicochemical. Here is the method:
Drug release studies were performed by dialysing a dorzolamide HCl solution and LipoDH prepared as described above in EXAMPLE 2 and EXAMPLE 3, respectively, against PBS at a pH of 7.4 and measuring the amount of dorzolamide released by HPLC.
Briefly, 1 mL of dorzolamide HCl solution and 1 ml LipoDH were each loaded into a dialysis tube (molecular weight cut-off of 8-10 kDal) before placing the tube into 40 mL of PBS in a 50 mL tube. The PBS in the tubes was sampled at 1, 4, 7, 24, 48, 72 and 96 hours at which time the dorzolamide concentration was measured by HPLC.
The cumulative drug release percentage vs release time for both dorzolamide HCl solution (unencapsulated) and LipoDH (encapsulated) was calculated and plotted. […] Without a doubt, encapsulation of dorzolamide in a liposome results in a formulation capable of sustained drug delivery.

Structures can show the parent of a compound that is named as a salt.

Consider `CCN[C@H]1C[C@H](C)S(=O)(=O)c2sc(S(N)(=O)=O)cc21` [dorzolamide HCl], for which, in data set [1] (at 7 days, storage at 5° C.), the degradation percentage is 57.9%. Besides, in data set [1] (start of stability test), the “degradation percentage, Start of Stability Test” value is on record as 0.0% and the “drug content, Start of Stability Test” value is on record as 9.5 mg/mL. In data set [1] (stored at 5° C. for 7 days), the “degradation percentage, 7 Days Incubation” value is reported as 57.9% and the “drug content, 7 Days Incubation” value worked out at 4.0 mg/mL. In data set [1] (stored at 5° C. for 14 days), the “degradation percentage, 14 Days Incubation” value amounted to 58.9% and the “drug content, 14 Days Incubation” value is given as 3.9 mg/mL. Besides, the “cumulative drug release percentage” value in data set [2] is 80%.
